{"source": "paper PMC10791743", "about": "“Selective CK1α degraders exert antiproliferative activity against a broad range of human cancer cell lines” (Nature Communications, 2024)", "assay_in_all_cases": "cells", "design_in_all_cases": "Oncolines panel cell viability, ATPlite 1Step luminescence, duplicate 9-point dose response, IC50", "key": {"786-O": {"system": "786-O", "details": "Homo sapiens, 786-0; 72 h viability; read-out: SJ3149", "procedure": "(§1) Cell viability assays were performed as previously described. In brief, cells were seeded in a 384-well plate at an optimized density. The starting cell number was determined after 24 h incubation by adding ATPlite 1Step (Perkin Elmer, Groningen, the Netherlands) to each well and recording luminescence on an Envision multimode reader (Perkin Elmer, Waltham, MA). After the addition of a duplicate 9-point dilution series of SJ3149, cells were incubated for another 72 h, followed by cell counting using ATPlite 1Step. The dilution series ranged from 3.2 to 31,600 nM or was diluted 100-fold for the most sensitive cell lines to ideally capture the complete dose–response curve. Percentage viability was determined at each compound concentration by relating the observed signal to a vehicle-treated control, that is, medium containing 0.4% (v/v) DMSO. Compound IC50 values were calculated by fitting a 4-parameter logistic curve to the percentage viability values using IDBS XLfit5 (IDBS, Guildford, UK). The IC50 was limited to the maximum tested compound concentration when the IC50 exceeded the maximum tested concentration. […] To evaluate the compound’s effect and potential therapeutic application across a diverse range of human cancers, we profiled SJ3149 in Oncolines® panel consisting of 115 human cancer cell lines, of which 86 were solid tumor and 29 hematologic cell lines, including MOLM-13. Effect on cell viability was monitored using ATPLite™ (Perkin Elmer), which measures intracellular ATP content as an indirect readout of cell number, like CellTiter Glo."}, "A-704": {"system": "A-704", "details": "Homo sapiens, A704; 72 h viability; read-out: SJ3149", "procedure": "as §1"}, "AP-1060": {"system": "AP-1060", "details": "72 h viability; read-out: SJ3149", "procedure": "as §1"}, "DU 145": {"system": "DU 145", "details": "Homo sapiens, DU-145; 72 h viability; read-out: SJ3149", "procedure": "as §1"}, "G-361": {"system": "G-361", "details": "Homo sapiens, G-361; 72 h viability; read-out: SJ3149", "procedure": "as §1"}, "HCT 116": {"system": "HCT 116", "details": "Homo sapiens, HCT-116; 72 h viability; read-out: SJ3149", "procedure": "as §1"}, "HT": {"system": "HT", "details": "Homo sapiens, HT; 72 h viability; read-out: SJ3149", "procedure": "as §1"}, "Hs 578T": {"system": "Hs 578T", "details": "Homo sapiens, Hs-578T; 72 h viability; read-out: SJ3149", "procedure": "as §1"}, "Hs 766T": {"system": "Hs 766T", "details": "Hs766T; 72 h viability; read-out: SJ3149", "procedure": "as §1"}, "J82": {"system": "J82", "details": "Homo sapiens, J82; 72 h viability; read-out: SJ3149", "procedure": "as §1"}, "MeWo": {"system": "MeWo", "details": "Homo sapiens, MeWo; 72 h viability; read-out: SJ3149", "procedure": "as §1"}, "OVCAR-3": {"system": "OVCAR-3", "details": "Homo sapiens, OVCAR-3; 72 h viability; read-out: SJ3149", "procedure": "as §1"}, "PF-382": {"system": "PF-382", "details": "Homo sapiens, PF-382; 72 h viability; read-out: SJ3149", "procedure": "as §1"}, "SJCRH30": {"system": "SJCRH30", "details": "72 h viability; read-out: SJ3149", "procedure": "as §1"}, "SNU-5": {"system": "SNU-5", "details": "Homo sapiens, SNU-5; 72 h viability; read-out: SJ3149", "procedure": "as §1"}, "SNU-C2B": {"system": "SNU-C2B", "details": "Homo sapiens, SNU-C2B; 72 h viability; read-out: SJ3149", "procedure": "as §1"}, "SUP-T1": {"system": "SUP-T1", "details": "Homo sapiens, SUP-T1; 72 h viability; read-out: SJ3149", "procedure": "as §1"}, "SW948": {"system": "SW948", "details": "Homo sapiens, SW948; 72 h viability; read-out: SJ3149", "procedure": "as §1"}, "TCCSUP": {"system": "TCCSUP", "details": "Homo sapiens, TCC-SUP; 72 h viability; read-out: SJ3149", "procedure": "as §1"}, "U-118 MG": {"system": "U-118 MG", "details": "Homo sapiens, U-118-MG; 72 h viability; read-out: SJ3149", "procedure": "as §1"}}}
{"smiles": "O=C1CCC(N2Cc3cc(Nc4noc5ccccc45)ccc3C2=O)C(=O)N1", "note": "(centres unmarked) [SJ3149]", "values": [{"measurement": "IC50", "setting": "786-O", "value": "> 31.6", "unit": "µM"}, {"measurement": "IC50", "setting": "A-704", "value": "> 31.6", "unit": "µM"}, {"measurement": "IC50", "setting": "AP-1060", "value": 0.00135, "unit": "µM"}, {"measurement": "IC50", "setting": "DU 145", "value": "> 31.6", "unit": "µM"}, {"measurement": "IC50", "setting": "G-361", "value": "> 31.6", "unit": "µM"}, {"measurement": "IC50", "setting": "HCT 116", "value": "> 31.6", "unit": "µM"}, {"measurement": "IC50", "setting": "HT", "value": "> 31.6", "unit": "µM"}, {"measurement": "IC50", "setting": "Hs 578T", "value": "> 31.6", "unit": "µM"}, {"measurement": "IC50", "setting": "Hs 766T", "value": "> 31.6", "unit": "µM"}, {"measurement": "IC50", "setting": "J82", "value": "> 31.6", "unit": "µM"}, {"measurement": "IC50", "setting": "MeWo", "value": "> 31.6", "unit": "µM"}, {"measurement": "IC50", "setting": "OVCAR-3", "value": "> 31.6", "unit": "µM"}, {"measurement": "IC50", "setting": "PF-382", "value": "> 31.6", "unit": "µM"}, {"measurement": "IC50", "setting": "SJCRH30", "value": "> 31.6", "unit": "µM"}, {"measurement": "IC50", "setting": "SNU-5", "value": "> 31.6", "unit": "µM"}, {"measurement": "IC50", "setting": "SNU-C2B", "value": "> 31.6", "unit": "µM"}, {"measurement": "IC50", "setting": "SUP-T1", "value": "> 31.6", "unit": "µM"}, {"measurement": "IC50", "setting": "SW948", "value": "> 31.6", "unit": "µM"}, {"measurement": "IC50", "setting": "TCCSUP", "value": "> 31.6", "unit": "µM"}, {"measurement": "IC50", "setting": "U-118 MG", "value": "> 31.6", "unit": "µM"}]}
